Literature values as cited in publication PMC5548178 (Pharmacotherapy, 2016).
Read-outs that look alike come from different tables or passages of the source.

What was measured:
[1] = reported variability in healthy volunteers
[2] = single-dose gemfibrozil 600 mg after 2 weeks of lopinavir 400 mg–ritonavir 100 mg twice daily; healthy volunteers

Compound	AUC (mean ± SD) [1] [ng·h/mL]	Substrate for the efflux transporter P-glycoprotein (P-glycoprotein (P-gp))	Reduction in gemfibrozil exposure (AUC0-∞) [2] [%]	Mean change in triglyceride levels (triglyceride levels; HIV-infected patients receiving NNRTI-based cART)	Mean change in triglyceride levels (triglyceride levels; non–HIV-infected controls)
CC(C)(Oc1ccc(C(=O)c2ccc(Cl)cc2)cc1)C(=O)O [fenofibric acid]	92000 ± 26000	not a substrate	–	–	–
Cc1ccc(C)c(OCCCC(C)(C)C(=O)O)c1 [gemfibrozil]	–	–	41	–60.3%	–59.3%
